Key:
Rattus norvegicus [1] = experiment: Antilipidemic activity against Sprague-Dawley rat assessed as liver cholesterol level per gram of tissue at 0.4 mmol/kg, po twice daily for 7 days (reference value: 2.96 +/- 0.42 mg); assay type: functional
Rattus norvegicus [2] = experiment: Antilipidemic activity against Sprague-Dawley rat assessed as liver triglyceride level per gram of tissue at 0.4 mmol/kg, po twice daily for 7 days (reference value: 3.87 +/- 0.59 mg); assay type: functional
[3] = target: T1, 3-hydroxy-3-methylglutaryl-coenzyme A reductase (Rattus norvegicus) (UniProt P51639); experiment: Inhibition of Sprague-Dawley rat liver microsome HMG-CoA reductase activity assessed as mevalonic acid formation form DL-3-hydroxy-3-methylglutaryl[3-14C]coenzyme by scintillation counting (reference value: 13.2 +/- 3.30 nmol/mg/h)
T1 sequence (whole entry): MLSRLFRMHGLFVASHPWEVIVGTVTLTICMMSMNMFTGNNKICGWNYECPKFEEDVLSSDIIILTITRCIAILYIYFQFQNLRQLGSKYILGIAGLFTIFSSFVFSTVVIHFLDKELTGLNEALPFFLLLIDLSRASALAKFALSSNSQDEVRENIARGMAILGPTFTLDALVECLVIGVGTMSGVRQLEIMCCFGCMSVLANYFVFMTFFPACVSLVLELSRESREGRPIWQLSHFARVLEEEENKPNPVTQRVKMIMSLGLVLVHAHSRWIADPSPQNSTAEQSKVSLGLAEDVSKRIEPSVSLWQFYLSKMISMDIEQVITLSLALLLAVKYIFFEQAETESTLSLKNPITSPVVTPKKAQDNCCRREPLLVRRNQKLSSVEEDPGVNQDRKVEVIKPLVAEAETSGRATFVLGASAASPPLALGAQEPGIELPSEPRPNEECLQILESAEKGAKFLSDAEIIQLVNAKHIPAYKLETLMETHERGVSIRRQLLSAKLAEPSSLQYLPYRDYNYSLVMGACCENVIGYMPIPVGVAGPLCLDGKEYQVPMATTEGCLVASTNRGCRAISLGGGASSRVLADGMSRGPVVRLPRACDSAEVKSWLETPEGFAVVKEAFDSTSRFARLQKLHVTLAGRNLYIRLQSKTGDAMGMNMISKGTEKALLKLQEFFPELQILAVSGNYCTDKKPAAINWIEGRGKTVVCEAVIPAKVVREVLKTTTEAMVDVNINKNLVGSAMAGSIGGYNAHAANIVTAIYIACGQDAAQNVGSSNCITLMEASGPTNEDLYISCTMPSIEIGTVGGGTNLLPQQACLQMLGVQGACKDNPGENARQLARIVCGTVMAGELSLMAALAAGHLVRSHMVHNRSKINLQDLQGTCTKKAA

Rattus norvegicus [4] = experiment: Antilipidemic activity against Sprague-Dawley rat assessed as increase in liver to body weight at 0.4 mmol/kg, po twice daily for 7 days (reference value: 3.96 +/- 0.20 mg/g); assay type: functional
Rattus norvegicus [5] = experiment: Effect on liver weight in Sprague-Dawley rat at 0.4 mmol/kg, po twice daily for 7 days (reference value: 11.8 +/- 0.93 g); assay type: ADME, organism-based; conditions: in vivo, 168 h
Rattus norvegicus [6] = experiment: Effect on microsomal protein content in Sprague-Dawley rat at 0.4 mmol/kg, po twice daily for 7 days (reference value: 25.8 +/- 1.17 mg/g); assay type: functional
Rattus norvegicus [7] = experiment: Antilipidemic activity against Sprague-Dawley rat assessed as increase in liver ethylmorphine N-demethylase activity measured as HCHO formation per mg/min at 0.4 mmol/kg, po twice daily for 7 days (reference value: 6.48 +/- 0.70 nmol); assay type: functional
Rattus norvegicus [8] = experiment: Antilipidemic activity against Sprague-Dawley rat assessed as increase in liver NADPH:cyt c reductase activity at 0.4 mmol/kg, po twice daily for 7 days (reference value: 164 +/- 16.7 nmol/mg/min); assay type: functional
Rattus norvegicus [9] = experiment: Antilipidemic activity against Sprague-Dawley rat assessed as increase in liver cyt b activity measured per mg of protein at 0.4 mmol/kg, po twice daily for 7 days (reference value: 0.310 +/- 0.052 nmol); assay type: functional
Rattus norvegicus [10] = experiment: Antilipidemic activity against Sprague-Dawley rat assessed as increase in liver cyt P-450 activity measured per mg of protein at 0.4 mmol/kg, po twice daily for 7 days (reference value: 0.833 +/- 0.0644 nmol); assay type: functional

Activity [3] | Activity (Rattus norvegicus [5]) | Structure (SMILES) | Activity (Rattus norvegicus [1]) | Activity (Rattus norvegicus [2]) | Activity (Rattus norvegicus [4]) | Activity (Rattus norvegicus [6]) | Activity (Rattus norvegicus [7]) | Activity (Rattus norvegicus [8]) | Activity (Rattus norvegicus [9]) | Activity (Rattus norvegicus [10])
8.2 nmol/mg/h | 14.1 g | C[C@@]12Oc3ccc(Cl)cc3[C@@H]1CCOC2=O (relative stereo) | 3.19 mg | 7.75 mg | 4.56% | 31.9 mg/g | 11.1 nmol | 315 nmol/mg/min | 0.421 nmol | 1.62 nmol
11 nmol/mg/h | 12.1 g | O=C1OCC[C@H]2c3cc(Cl)ccc3O[C@@H]12 (relative stereo) | 2.93 mg | 5.66 mg | 4.03% | 25.2 mg/g | 7.96 nmol | 210 nmol/mg/min | 0.292 nmol | 0.962 nmol
11.3 nmol/mg/h | 15.1 g | CCOC(=O)C(C)(C)Oc1ccc(Cl)cc1 [CLOFIBRATE] | 2.59 mg | 4.65 mg | 4.84% | 29 mg/g | 7.82 nmol | 246 nmol/mg/min | 0.293 nmol | 1.06 nmol

Reference: ChEMBL document CHEMBL3227918, “Synthesis and pharmacological evaluation of cis-3,4,4a,9a-tetrahydro-1H-pyrano[3,4-b]benzofuran-1-ones. Tricyclic analogues related to the antilipidemic drug clofibrate” (J Med Chem, 1979)
